Test results published in patent US20250042853A1, “BICYCLIC COMPOUND AND APPLICATION THEREOF” (BETTA PHARMACEUTICALS CO., LTD, priority 2021, published 2025).

What was measured:
786-O-HIF2α-Luc cells = experiment: Luciferase assay (HIF2α reporter gene cells); format: cell-based; settings: 18-20 h, luminescence
Method: The luciferase LUC gene was stably transfected into 786-0 cells (purchased from ATCC) using Lipofectamine 3000 transfection reagent (purchased from Invitrogen) to construct HIF2α reporter gene cells (786-O-HIF2α-Luc cells). The experiment was performed when 786-O-HIF2α-Luc cells were in the logarithmic growth phase, the culture medium (RPMI MEDIUM 1640, purchased from Invitrogen) was discarded, and the cells were rinsed three times with PBS; trypsin (TrypLE, purchased from Invitrogen) was added to digest the cells, and the digestion was terminated with culture medium, 10% fetal bovine serum, 1% penicillin, and streptomycin. The cells were collected by centrifugation, and washed twice with PBS to remove phenol red in the culture medium. The cells were resuspended to an appropriate concentration. The cell density and viability were measured, to ensure that the cells with a viability of at least 90% were used in the assay.
The compounds at a gradient concentration were transferred into 384 wells using Echo550 (non-contact acoustic pipetting system, purchased from Labcyte), 25 nL/well. The cells were seeded into 384-well plates, with 4500 cells/well and 25 μL of culture medium, and the final concentrations of the compounds were 10000 nM, 3333 nM, 1111 nM, 370 nM, 123 nM, 41.1 nM, 13.7 nM, 4.6 nM, 1.5 nM, and 0.5 nM, respectively. The cells were cultured for 18-20 h under conditions of 37° C. and 5% CO2. Steady-Glo™ luciferase assay system (purchased from Promega) was added to a 384-well plate, 25 μL/well. Luminescence values were detected using Envision. The inhibition rate % was calculated based on the RLU (Record Luminescence) signal value of each well, and then the IC50 values of the corresponding compounds were calculated by fitting using Graphpad 8.0.
The IC50 data of the exemplary examples are provided in Table 2, where A stands for IC50≤0.1 μM; B stands for 0.1 μM<IC50≤0.5 μM; and C stands for IC50>0.5 μM.

VEGFA = VEGFA ELISA assay (IC50); format: cell-based; settings: Homo sapiens, 786-0; 786-O cells, 24 h, VEGFA in culture supernatant by ELISA
Method: 786-O cells in the logarithmic growth phase were inoculated into a 96-well plate at a cell concentration of 65,000 cells per ml of culture liquid, 180 μL per well. The compounds were diluted to the corresponding concentrations, and 20 μL of compound solutions of various concentrations were added to the corresponding cell wells, so that the final concentrations of the compounds were 1.5 nM, 4.6 nM, 13.7 nM, 41.2 nM, 123.5 nM, 370.4 nM, 1111.1 nM, 3333.3 nM, and 10000 nM, respectively. After culturing for 24 h, the cell culture supernatant was collected and the VEGFA concentration was determined using an ELISA kit (purchased from Abeam). Finally, the reaction was terminated and the absorbance value of each well was measured at a wavelength of 450 nm using an ELISA reader. The IC50 values were calculated by GraphPadPrism. CellTiter-Glo reagent was used to measure cell viability.

Row | SMILES | IC50 (786-O-HIF2α-Luc cells; class symbols) [nM] | IC50 (VEGFA) [nM] | IC50 (786-O-HIF2α-Luc cells) [nM]
1 | O=S(=O)(c1cn(-c2ccc(F)c(C(F)F)c2)c2c1[C@H](O)C(F)(F)CC2)C(F)(F)F [Example 12, (S)-1-(3-(difluoromethyl)-4-fluorophenyl)-5,5-difluoro-3-((trifluoromethyl)sulfonyl)-4,5,6,7-tetrahydro-1H-indol-4-ol] | ≤ 100 | 10 | 
2 | O=S(=O)(CF)c1cn(-c2ccc(F)c(C(F)F)c2)c2c1[C@H](O)C(F)(F)CC2 [Example 14, (S)-1-(3-(difluoromethyl)-4-fluorophenyl)-5,5-difluoro-3-((fluoromethyl)sulfonyl)-4,5,6,7-tetrahydro-1H-indol-4-ol] |  | 40 | 54
3 | O=S(=O)(c1cn(-c2ccc(F)c(C(F)(F)F)c2)c2c1[C@H](O)C(F)(F)CC2)C(F)(F)F [Example 23, (S)-5,5-difluoro-1-(4-fluoro-3-(trifluoromethyl)phenyl)-3-((trifluoromethyl)sulfonyl)-4,5,6,7-tetrahydro-1H-indol-4-ol] |  | 11 | 40
4 | O=S(=O)(c1cn(-c2ccc(F)c(C(F)F)c2)c2c1[C@H](O)CCC2)C(F)F [Example 32, (R)-1-(3-(difluoromethyl)-4-fluorophenyl)-3-((difluoromethyl)sulfonyl)-4,5,6,7-tetrahydro-1H-indol-4-ol] | 100 to 500 | 62 | 
5 | O=S(=O)(c1cn(-c2ccc(F)c(Cl)c2)c2c1[C@H](O)C(F)(F)CC2)C(F)(F)F [Example 33, (S)-1-(3-chloro-4-fluorophenyl)-5,5-difluoro-3-((trifluoromethyl)sulfonyl)-4,5,6,7-tetrahydro-1H-indol-4-ol] |  | 41 | 52
6 | N#Cc1ccc(-n2cc(S(=O)(=O)C(F)(F)F)c3c2CCC(F)(F)[C@H]3O)cc1C(F)F [Example 35, (S)-4-(5,5-difluoro-4-hydroxyl-3-((trifluoromethyl)sulfonyl)-4,5,6,7-tetrahydro-1H-indol-1-yl)-2-(difluoromethyl)benzonitrile] |  | 18 | 10
7 | O=S(=O)(c1cn(-c2ccc(F)c(C(F)F)c2)c2c1[C@H](O)CCC2)C(F)(F)F [Example 52, (R)-1-(3-(difluoromethyl)-4-fluorophenyl)-3-((trifluoromethyl)sulfonyl)-4,5,6,7-tetrahydro-1H-indol-4-ol] |  | 46 | 45
8 | CS(=O)(=NC#N)c1cn(-c2ccc(F)c(C(F)F)c2)c2c1[C@H](O)C(F)(F)CC2 (stereo partly drawn) [Example 59, N—(((S)-1-(3-(difluoromethyl)-4-fluorophenyl)-5,5-difluoro-4-hydroxyl-4,5,6,7-tetrahydro-1H-indol-3-yl)(methyl)(oxo)-16-sulfino)cyanamide] | 100 to 500 | 109 | 
9 | N#Cc1ccc(-n2cc(C(F)(F)F)c3c2CCC(F)C3O)cc1C(F)F (stereo not drawn) [Example 107, 2-(difluoromethyl)-4-(5-fluoro-4-hydroxyl-3-(trifluoromethyl)-4,5,6,7-tetrahydro-1H-indol-1-yl)benzonitrile] | ≤ 100 | 34 | 
